Assay results: paper PMC4274894, “The poplar Phi class glutathione transferase: expression, activity and structure of GSTF1” (Frontiers in Plant Science, 2014)
Read-outs that look alike come from different tables or passages of the source. Blank lines part the entries; values can stand above or below the compound they belong to.

How the values were obtained:
PttGSTF1 [1] = biological target: T1, PttGSTF1 (Populus trichocarpa, UniProt A9PHH6); experiment: spectrophotometric GSH-conjugation assay ([…] nm), Michaelis-Menten fit; type: biochemical; conditions: apparent Km; 0.7 mM GSH; 100 mM phosphate pH 6.5; 25°C; read-out: HNE
T1 construct: initiator Met cleaved, residues Ala2-Ala215; 24192 Da (WT); homodimer; differs from the P. trichocarpa GSTF1 by Val33 (Ile) and Arg86 (Lys)
T1 sequence (A9PHH6 entry or part of it): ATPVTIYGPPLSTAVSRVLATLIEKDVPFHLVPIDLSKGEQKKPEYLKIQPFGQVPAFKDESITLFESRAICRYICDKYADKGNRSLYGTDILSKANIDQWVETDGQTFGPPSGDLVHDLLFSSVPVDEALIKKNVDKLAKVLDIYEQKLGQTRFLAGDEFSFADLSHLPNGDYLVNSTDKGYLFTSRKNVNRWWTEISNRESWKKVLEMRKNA

[2] = biological target: Populus tremula × P. tremuloides glutathione transferase Phi 1 (PttGSTF1) (Populus tremula × P. tremuloides); experiment: SEC; calibrated Superdex 200 10/300, 30 mM Tris-HCl pH 8.0, 200 mM NaCl, 100 μg of purified protein injected, 0.5 ml/min; standards 6500-700,000 Da
[3] = biological target: PttGSTF1 S13A (Populus tremula × P. tremuloides); experiment: as above
PttGSTF1 [4] = biological target: T1, PttGSTF1; experiment: spectrophotometric GSH-conjugation assay ([…] nm), Michaelis-Menten fit; type: biochemical; conditions: apparent Km; 1 mM GSH; 100 mM sodium phosphate pH 7.5; 25°C; read-out: PNP-butyrate
PttGSTF1 [5] = biological target: T2, PttGSTF1 (Populus trichocarpa, UniProt A9PHH6, S13A, form not given); experiment: as above; type: biochemical; conditions: apparent Km; 1 mM GSH; 100 mM sodium phosphate pH 7.5; 25°C; read-out: PNP-butyrate
T2 construct: initiator Met cleaved, residues Ala2-Ala215; 24192 Da (WT); homodimer; differs from the P. trichocarpa GSTF1 by Val33 (Ile) and Arg86 (Lys)
T2 sequence (A9PHH6 entry or part of it S13A, form open): as the sequence (A9PHH6 entry or part of it) above, with S12A counted along it

[6] = biological target: PttGSTF1 S13C (Populus tremula × P. tremuloides); experiment: SEC; calibrated Superdex 200 10/300, 30 mM Tris-HCl pH 8.0, 200 mM NaCl, 100 μg of purified protein injected, 0.5 ml/min; standards 6500-700,000 Da

Km (PttGSTF1 [1]): 67.1 ± 6.6 µM
Compound: CCCCCC(O)/C=C/C=O (stereo not drawn) [HNE, 4-hydroxy-2-nonenal]

stoichiometry N [2]: 2
Compound: Populus tremula × P. tremuloides glutathione transferase Phi 1 (PttGSTF1) (enzyme)

stoichiometry N [3]: 2
Compound: PttGSTF1 S13A (enzyme)

Km (PttGSTF1 [4]): 360 ± 32.2 µM | Km (PttGSTF1 [5]): 1510 ± 120 µM
Compound: CCCC(=O)Oc1ccc([N+](=O)[O-])cc1 [PNP-butyrate]

stoichiometry N [6]: 2
Compound: PttGSTF1 S13C (enzyme)
